Test results as given in PubChem BioAssay AID328 (DTP/NCI, 2004).
Values joined by “and” are separate entries in the source; they are usually repeats but may differ in a detail not shown here. Identical values can stand only once. Inconclusive results and toxic doses are left out.

Tested on: BDF1 mice, P388 leukemia ip, median survival T/C
Assay: NCI In Vivo Anticancer Drug Screen. Data for tumor model P388 Leukemia (intraperitoneal) in B6D2F1 (BDF1) mice
Conditions: endpoint: median survival time, higher = longer survival
In short: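 Survival ratio, drug arm over vehicle arm, in mice with a transplanted tumour.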

[1] = dose: 100.0 mg/kg/injection, schedule: Q01DX009 (ip), vehicle: Klucel (hydroxypropylcellulose) (HPC)
[2] = dose: 100.0 mg/kg/injection, schedule: Q04DX003 (ip), vehicle: Klucel (hydroxypropylcellulose) (HPC)
[3] = dose: 200.0 mg/kg/injection, schedule: Q01DX009 (ip), vehicle: Klucel (hydroxypropylcellulose) (HPC)
[4] = dose: 200.0 mg/kg/injection, schedule: Q04DX003 (ip), vehicle: Klucel (hydroxypropylcellulose) (HPC)
[5] = dose: 50.0 mg/kg/injection, schedule: Q04DX002 (ip), vehicle: saline with Tween-80
[6] = dose: 100.0 mg/kg/injection, schedule: Q04DX002 (ip), vehicle: saline with Tween-80
[7] = dose: 200.0 mg/kg/injection, schedule: Q04DX002 (ip), vehicle: saline with Tween-80
[8] = dose: 100.0 mg/kg/injection, schedule: Q04DX003 (ip), vehicle: saline with Tween-80
[9] = dose: 200.0 mg/kg/injection, schedule: Q04DX003 (ip), vehicle: saline with Tween-80
[10] = dose: 400.0 mg/kg/injection, schedule: Q04DX003 (ip), vehicle: saline with Tween-80
[11] = dose: 400.0 mg/kg/injection, schedule: Q01DX009 (ip), vehicle: Klucel (hydroxypropylcellulose) (HPC)
[12] = dose: 50.0 mg/kg/injection, schedule: Q01DX009 (ip), vehicle: saline
[13] = dose: 50.0 mg/kg/injection, schedule: Q01DX009 (ip), vehicle: saline with Tween-80
[14] = dose: 50.0 mg/kg/injection, schedule: Q04DX003 (ip), vehicle: saline with Tween-80
[15] = dose: 100.0 mg/kg/injection, schedule: Q01DX009 (ip), vehicle: saline with Tween-80
[16] = dose: 400.0 mg/kg/injection, schedule: Q04DX003 (ip), vehicle: Klucel (hydroxypropylcellulose) (HPC)

O=[N+]([O-])c1cccnc1Cl
T/C (dose: 50.0 mg/kg/injection, schedule: Q01DX009 (ip), vehicle: Klucel (hydroxypropylcellulose) (HPC)): 91 % of control | T/C [1]: 100 % of control | T/C [2]: 104 % of control | T/C [3]: 91 % of control | T/C [4]: 100 % of control

CCN(CC)CC(O)CNC(=O)c1c2nc3c(C(=O)NCC(O)CN(CC)CC)ccc(C)c3oc-2c(C)c(=O)c1N (configuration not stated)
T/C [5]: 110 % of control | T/C [6]: 106 % of control and 120 % of control

CSc1nc(N)c2c(C(N)=O)cc(=O)[nH]c2n1
T/C [6]: 101 % of control | T/C [7]: 90 % of control

C[n+]1cccc(NC(=O)c2ccc(NC(=O)c3ccc(C(=O)Nc4ccc(NC(=N)N)cc4)cc3)cc2)c1
T/C (dose: 3.3 mg/kg/injection, schedule: Q04DX003 (ip), vehicle: saline): 150 % of control | T/C (dose: 5.0 mg/kg/injection, schedule: Q04DX003 (ip), vehicle: saline): 159 % of control | T/C (dose: 5.56 mg/kg/injection, schedule: Q04DX003 (ip), vehicle: saline): 180 % of control | T/C (dose: 7.5 mg/kg/injection, schedule: Q04DX003 (ip), vehicle: saline): 195 % of control | T/C (dose: 8.33 mg/kg/injection, schedule: Q04DX003 (ip), vehicle: saline): 235 % of control | T/C (dose: 12.5 mg/kg/injection, schedule: Q04DX003 (ip), vehicle: saline): 235 % of control | T/C (dose: 18.7 mg/kg/injection, schedule: Q04DX003 (ip), vehicle: saline): 155 % of control

O=C(c1ccccc1Cl)n1c2c(c3ccccc31)CCCC2
T/C [8]: 100 % of control | T/C [9]: 104 % of control | T/C [10]: 100 % of control

Nc1nc(N)nc(N)n1
T/C [1]: 90 % of control | T/C [3]: 90 % of control | T/C [11]: 100 % of control | T/C (dose: 800.0 mg/kg/injection, schedule: Q01DX009 (ip), vehicle: Klucel (hydroxypropylcellulose) (HPC)): 100 % of control | T/C (dose: 2000.0 mg/kg/injection, schedule: Q01DX009 (ip), vehicle: Klucel (hydroxypropylcellulose) (HPC)): 95 % of control

CC1(C)N=C(N)N=C(N)N1c1ccc(CCCCc2cccc(S(=O)(=O)F)c2)c(Cl)c1
T/C (dose: 1.0 mg/kg/injection, schedule: Q01DX009 (ip), vehicle: saline with Tween-80): 119 % of control | T/C (dose: 1.32 mg/kg/injection, schedule: Q01DX009 (ip), vehicle: saline with Tween-80): 150 % of control | T/C (dose: 2.0 mg/kg/injection, schedule: Q01DX009 (ip), vehicle: saline with Tween-80): 150 % of control | T/C (dose: 3.0 mg/kg/injection, schedule: Q01DX009 (ip), vehicle: saline with Tween-80): 154 % of control | T/C (dose: 4.0 mg/kg/injection, schedule: Q01DX009 (ip), vehicle: saline with Tween-80): 161 % of control | T/C (dose: 8.0 mg/kg/injection, schedule: Q01DX009 (ip), vehicle: saline with Tween-80): 161 % of control and 170 % of control | T/C (dose: 12.0 mg/kg/injection, schedule: Q01DX009 (ip), vehicle: saline with Tween-80): 170 % of control | T/C (dose: 12.5 mg/kg/injection, schedule: Q04DX003 (ip), vehicle: saline with Tween-80): 109 % of control | T/C (dose: 18.0 mg/kg/injection, schedule: Q01DX009 (ip), vehicle: saline with Tween-80): 200 % of control

Oc1ccc(O)cc1
T/C (dose: 25.0 mg/kg/injection, schedule: Q04DX003 (ip), vehicle: Klucel (hydroxypropylcellulose) (HPC)): 106 % of control | T/C [12]: 112 % of control | T/C (dose: 50.0 mg/kg/injection, schedule: Q04DX003 (ip), vehicle: Klucel (hydroxypropylcellulose) (HPC)): 110 % of control | T/C (dose: 66.0 mg/kg/injection, schedule: Q01DX009 (ip), vehicle: saline): 100 % of control | T/C [2]: 112 % of control

C[C@]12CCCC[C@@H]1CC[C@@H]1[C@@H]2[C@@H](O)C[C@]2(C)[C@@H](O)CC[C@@H]12
T/C [13]: 95 % of control and 100 % of control | T/C [14]: 100 % of control | T/C (dose: 66.0 mg/kg/injection, schedule: Q04DX003 (ip), vehicle: saline with Tween-80): 95 % of control | T/C [15]: 95 % of control and 100 % of control | T/C [8]: 122 % of control | T/C (dose: 150.0 mg/kg/injection, schedule: Q04DX003 (ip), vehicle: saline with Tween-80): 90 % of control | T/C (dose: 200.0 mg/kg/injection, schedule: Q01DX009 (ip), vehicle: saline with Tween-80): 90 % of control and 100 % of control | T/C [9]: 100 % of control

Cc1nnc2ncccn12
T/C [12]: 96 % of control and 102 % of control and 106 % of control | T/C (dose: 100.0 mg/kg/injection, schedule: Q01DX009 (ip), vehicle: saline): 97 % of control and 102 % of control (2×) | T/C (dose: 200.0 mg/kg/injection, schedule: Q01DX009 (ip), vehicle: saline): 115 % of control | T/C (dose: 400.0 mg/kg/injection, schedule: Q01DX009 (ip), vehicle: saline): 93 % of control

CCCCCCCCCCCCCSCCCCCCCCSCCCCCCCCCCCCC
T/C (dose: 100.0 mg/kg/injection, schedule: Q01DX001 (ip), vehicle: saline with Tween-80): 95 % of control | T/C (dose: 200.0 mg/kg/injection, schedule: Q01DX001 (ip), vehicle: saline with Tween-80): 90 % of control | T/C (dose: 400.0 mg/kg/injection, schedule: Q01DX001 (ip), vehicle: saline with Tween-80): 100 % of control

C1=CC(c2ccccc2)N2C(C(c3ccccc3)=N1)C2c1ccccc1 (configuration not stated)
T/C (dose: 25.0 mg/kg/injection, schedule: Q04DX003 (ip), vehicle: saline with Tween-80): 98 % of control | T/C [14]: 94 % of control | T/C [8]: 100 % of control | T/C [9]: 103 % of control

CCOC(=O)C(C(=O)OCC)C1C=CCC1 (configuration not stated)
T/C [1]: 100 % of control | T/C [2]: 95 % of control | T/C [3]: 104 % of control | T/C [4]: 116 % of control | T/C [11]: 109 % of control | T/C [16]: 100 % of control

CC(C)=CCCC(C)=C(C(=O)O)C(=O)O
T/C [2]: 113 % of control | T/C [4]: 111 % of control | T/C [16]: 110 % of control

COc1ccccc1OCC(C)=O
T/C (dose: 178.0 mg/kg/injection, schedule: Q04DX003 (ip), vehicle: saline with Tween-80): 104 % of control | T/C (dose: 266.0 mg/kg/injection, schedule: Q04DX003 (ip), vehicle: saline with Tween-80): 104 % of control | T/C [10]: 114 % of control | T/C (dose: 600.0 mg/kg/injection, schedule: Q04DX003 (ip), vehicle: saline with Tween-80): 104 % of control

CN(C)CC(=O)Nc1nc(-c2ccc(Cl)cc2)cs1
T/C (dose: 50.0 mg/kg/injection, schedule: Q01DX005 (ip), vehicle: saline with Tween-80): 101 % of control | T/C (dose: 100.0 mg/kg/injection, schedule: Q01DX005 (ip), vehicle: saline with Tween-80): 92 % of control | T/C (dose: 200.0 mg/kg/injection, schedule: Q01DX005 (ip), vehicle: saline with Tween-80): 99 % of control

CCOC(=O)c1c[nH]c2ccccc2c1=O
T/C (dose: 100.0 mg/kg/injection, schedule: Q04DX002 (ip), vehicle: saline): 107 % of control | T/C (dose: 200.0 mg/kg/injection, schedule: Q04DX002 (ip), vehicle: saline): 111 % of control | T/C (dose: 400.0 mg/kg/injection, schedule: Q04DX002 (ip), vehicle: saline): 102 % of control

c1cnc2c3c(ccc2c1)CN(C1CCCCC1)CO3
T/C [14]: 104 % of control | T/C [8]: 104 % of control | T/C [9]: 90 % of control

CC(C)c1nsc(N)c1C(N)=O
T/C [13]: 92 % of control | T/C [15]: 96 % of control

Cc1cc(N(C)C)ccc1/C=C/c1ccnc2ccccc12
T/C [6]: 117 % of control | T/C [7]: 107 % of control

Clc1nc2nc(Cl)n(Cl)c2nc1Cl
T/C (dose: 12.5 mg/kg/injection, schedule: Q01DX006 (ip), vehicle: saline with Tween-80): 100 % of control | T/C (dose: 25.0 mg/kg/injection, schedule: Q01DX006 (ip), vehicle: saline with Tween-80): 91 % of control | T/C (dose: 25.0 mg/kg/injection, schedule: Q01DX009 (ip), vehicle: saline with Tween-80): 86 % of control | T/C (dose: 25.0 mg/kg/injection, schedule: Q01DX009 (ip), vehicle: water): 109 % of control | T/C (dose: 50.0 mg/kg/injection, schedule: Q01DX006 (ip), vehicle: saline with Tween-80): 109 % of control | T/C [13]: 86 % of control | T/C [14]: 105 % of control | T/C (dose: 100.0 mg/kg/injection, schedule: Q01DX009 (ip), vehicle: water): 111 % of control | T/C [8]: 105 % of control | T/C (dose: 200.0 mg/kg/injection, schedule: Q01DX009 (ip), vehicle: water): 116 % of control | T/C [9]: 112 % of control

OC1(c2ccncc2)C=CCC1 (configuration not stated)
T/C (dose: 25.0 mg/kg/injection, schedule: Q04DX002 (ip), vehicle: saline with Tween-80): 100 % of control | T/C [5]: 106 % of control | T/C [6]: 97 % of control
